According to US20250382297A1, “INHIBITORS OF FGFR2 AND FGFR3 AND USES THEREOF” (Insilico Medicine IP Limited, priority 2022, published 2025):
Where two headings read alike, the source gives them in different places.

Key:
FGFR3 = FGFR3 (Homo sapiens (Human), UniProt P22607); test: FGFR biochemical assay (LanthaScreen TR-FRET kinase assay), FGFR3
Method: (§1) Convert Ratio values to percent inhibition values (Percent inhibition=(max−sample Ratio)/(max−min)*100) where “min” means the Ratio of no enzyme control and “max” means the Ratio of DMSO control. • Data are analyzed and curve fitting is performed by XLFit Excel add-in version 5.4.0.8. The IC50 calculation equation is: Y=Bottom+(Top-Bottom)/(1+ (IC50/X)^HillSlope.

FGFR1 = FGFR1 (Homo sapiens (Human), UniProt P11362); test: FGFR biochemical assay (LanthaScreen TR-FRET kinase assay), FGFR1
Method: as §1

FGFR2 = FGFR2 (Homo sapiens (Human), UniProt P21802); test: FGFR biochemical assay (LanthaScreen TR-FRET kinase assay), FGFR2
Method: as §1

[1] = read-out: FGFR3 IC50, incubation with enzyme at room temperature for 10 minutes before substrate, ATP 35 μM, FGFR3 0.1 nM
[2] = read-out: FGFR2 IC50, incubation with enzyme at room temperature for 10 minutes before substrate, ATP 22 μM, FGFR2 0.01 nM
[3] = read-out: FGFR2 IC50, * incubation at room temperature for 60 minutes before addition of substrate solution, ATP 22 μM, FGFR2 0.01 nM
[4] = read-out: FGFR1 IC50, incubation with enzyme at room temperature for 10 minutes before substrate, ATP 28 μM, FGFR1 0.01 nM
[5] = read-out: FGFR3 IC50, * incubation at room temperature for 60 minutes before addition of substrate solution, ATP 35 μM, FGFR3 0.1 nM

FGFR1, sequence (P11362 22-822): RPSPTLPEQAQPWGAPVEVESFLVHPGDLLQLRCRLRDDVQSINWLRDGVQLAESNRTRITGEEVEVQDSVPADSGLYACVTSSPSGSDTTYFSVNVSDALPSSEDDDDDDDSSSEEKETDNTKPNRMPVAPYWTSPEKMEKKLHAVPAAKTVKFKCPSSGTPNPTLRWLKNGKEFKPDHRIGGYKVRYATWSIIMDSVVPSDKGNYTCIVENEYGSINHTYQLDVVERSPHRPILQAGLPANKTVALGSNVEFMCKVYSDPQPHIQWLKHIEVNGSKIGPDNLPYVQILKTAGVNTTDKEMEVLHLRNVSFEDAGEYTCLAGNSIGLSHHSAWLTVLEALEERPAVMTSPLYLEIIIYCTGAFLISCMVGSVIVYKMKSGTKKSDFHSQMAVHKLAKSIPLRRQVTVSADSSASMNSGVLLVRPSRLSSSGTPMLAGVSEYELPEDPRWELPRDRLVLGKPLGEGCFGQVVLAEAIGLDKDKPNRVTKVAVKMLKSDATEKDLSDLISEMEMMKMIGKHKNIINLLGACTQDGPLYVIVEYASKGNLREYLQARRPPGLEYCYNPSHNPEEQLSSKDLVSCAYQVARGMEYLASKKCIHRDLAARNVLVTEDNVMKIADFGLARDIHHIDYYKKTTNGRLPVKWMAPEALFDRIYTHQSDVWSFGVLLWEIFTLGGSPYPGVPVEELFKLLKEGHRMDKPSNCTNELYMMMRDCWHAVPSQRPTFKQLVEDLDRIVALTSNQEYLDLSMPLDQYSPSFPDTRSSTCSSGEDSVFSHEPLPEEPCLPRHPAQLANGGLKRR
FGFR3, sequence (P22607 23-806): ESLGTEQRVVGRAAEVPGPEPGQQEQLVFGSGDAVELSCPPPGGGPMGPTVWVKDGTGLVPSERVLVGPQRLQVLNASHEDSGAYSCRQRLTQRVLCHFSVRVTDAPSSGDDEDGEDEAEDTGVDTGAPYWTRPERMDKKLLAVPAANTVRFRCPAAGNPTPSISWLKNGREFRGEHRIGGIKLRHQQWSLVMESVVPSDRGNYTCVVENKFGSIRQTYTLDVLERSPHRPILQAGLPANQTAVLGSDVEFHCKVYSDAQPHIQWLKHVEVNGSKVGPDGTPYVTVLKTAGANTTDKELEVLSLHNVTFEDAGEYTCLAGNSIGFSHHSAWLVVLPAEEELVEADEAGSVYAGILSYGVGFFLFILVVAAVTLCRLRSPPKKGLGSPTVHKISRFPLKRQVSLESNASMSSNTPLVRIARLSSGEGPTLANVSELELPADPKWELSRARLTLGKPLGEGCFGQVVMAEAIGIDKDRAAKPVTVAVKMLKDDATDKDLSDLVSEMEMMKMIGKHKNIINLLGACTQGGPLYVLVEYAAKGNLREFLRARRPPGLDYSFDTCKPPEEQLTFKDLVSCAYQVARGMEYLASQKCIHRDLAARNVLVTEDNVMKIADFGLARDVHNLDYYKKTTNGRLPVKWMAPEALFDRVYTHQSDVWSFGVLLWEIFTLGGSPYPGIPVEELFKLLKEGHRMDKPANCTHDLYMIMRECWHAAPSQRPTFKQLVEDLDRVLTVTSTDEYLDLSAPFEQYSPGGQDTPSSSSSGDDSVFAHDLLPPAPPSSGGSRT
FGFR2, sequence (P21802 22-821): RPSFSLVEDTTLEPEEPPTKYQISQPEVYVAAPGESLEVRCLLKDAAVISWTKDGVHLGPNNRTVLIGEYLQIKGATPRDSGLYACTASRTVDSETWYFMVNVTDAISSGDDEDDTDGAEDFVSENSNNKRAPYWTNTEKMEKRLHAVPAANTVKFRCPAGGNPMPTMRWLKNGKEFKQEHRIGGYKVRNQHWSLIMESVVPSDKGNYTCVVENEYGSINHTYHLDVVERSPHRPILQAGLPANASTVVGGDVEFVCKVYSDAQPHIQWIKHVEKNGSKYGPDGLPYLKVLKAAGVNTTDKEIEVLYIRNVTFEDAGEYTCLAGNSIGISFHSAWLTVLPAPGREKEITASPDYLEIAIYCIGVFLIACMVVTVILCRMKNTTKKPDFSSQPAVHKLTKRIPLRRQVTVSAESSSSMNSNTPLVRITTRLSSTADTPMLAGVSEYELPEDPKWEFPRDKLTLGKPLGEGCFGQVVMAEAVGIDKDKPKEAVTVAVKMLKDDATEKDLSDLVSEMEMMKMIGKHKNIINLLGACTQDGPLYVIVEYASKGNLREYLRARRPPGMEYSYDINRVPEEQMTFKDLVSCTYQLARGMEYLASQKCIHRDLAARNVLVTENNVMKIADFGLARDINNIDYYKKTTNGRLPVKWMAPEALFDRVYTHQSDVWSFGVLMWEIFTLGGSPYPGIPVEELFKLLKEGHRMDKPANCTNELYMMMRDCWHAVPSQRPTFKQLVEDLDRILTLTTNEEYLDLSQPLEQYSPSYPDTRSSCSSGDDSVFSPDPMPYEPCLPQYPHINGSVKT

Structure (SMILES) | IC50 (FGFR1) [nM] | IC50 (FGFR2; [2]) [nM] | IC50 (FGFR3) [nM] | IC50 (FGFR2; [3]) [nM] | also measured
C=CC(=O)Nc1ccc(-c2c(-c3ccc(C(=O)NCC4(F)COC4)cc3)c(C(N)=O)c3cnc(C)cn23)cc1 [Example 64, 6-(4-acrylamidophenyl)-7-(4-(((3-fluorooxetan-3-yl)methyl)carbamoyl)phenyl)-3-methylpyrrolo[1,2-a]pyrazine-8-carboxamide] | 10 to 100 | < 10 | – | – | IC50 (FGFR3; [1]): < 10 nM
C=C(F)C(=O)N1CCc2cc(-c3c(-c4ccc(Oc5nccc(C)n5)c(F)c4)c(C(N)=O)c4cnc(C)cn34)ccc21 [Example 72, 7-(3-fluoro-4-((4-methylpyrimidin-2-yl)oxy)phenyl)-6-(1-(2-fluoroacryloyl)indolin-5-yl)-3-methylpyrrolo[1,2-a]pyrazine-8-carboxamide] | 100 to 1000 | – | 10 to 100 | < 10 | –
C=C(F)C(=O)Nc1ccc(-c2c(-c3ccc(Oc4nccc(C)n4)c(F)c3)c(C(N)=O)c3cc(C)cnn23)cc1 [Example 87, 6-(3-fluoro-4-((4-methylpyrimidin-2-yl)oxy)phenyl)-7-(4-(2-fluoroacrylamido)phenyl)-3-methylpyrrolo[1,2-b]pyridazine-5-carboxamide] | 10 to 100 | – | 10 to 100 | < 10 | –
C=CC(=O)Nc1ccc(-c2c(-c3ccc(Oc4nc(C)cs4)cc3)c(C(N)=O)c3cnccn23)cc1 [Example 19, 6-(4-acrylamidophenyl)-7-(4-((4-methylthiazol-2-yl)oxy)phenyl)pyrrolo[1,2-a]pyrazine-8-carboxamide] | 10 to 100 | < 10 | 10 to 100 | – | –
C=CC(=O)Nc1ccc(-c2c(-c3ccc(Oc4cccc(C)n4)cc3)c(C#N)c3sccn23)cc1 [Example 24, N-(4-(7-cyano-6-(4-((6-methylpyridin-2-yl)oxy)phenyl)pyrrolo[2,1-b]thiazol-5-yl)phenyl) acrylamide] | – | > 1000 | – | – | IC50 (FGFR3; [1]): > 1000 nM; IC50 (FGFR1; [4]): > 1000 nM
C=C(F)C(=O)Nc1ccc(-c2c(-c3ccc(Oc4nccc(C)n4)cc3)c(C(N)=O)c3cnc(CCO)cn23)c(F)c1 [Example 81, 6-(2-fluoro-4-(2-fluoroacrylamido)phenyl)-3-(2-hydroxyethyl)-7-(4-((4-methylpyrimidin-2-yl)oxy)phenyl)pyrrolo[1,2-a]pyrazine-8-carboxamide] | 10 to 100 | – | – | < 10 | IC50 (FGFR3; [5]): < 10 nM
C=CC(=O)Nc1ccc(-c2c(-c3ccc(Oc4cccc(C)n4)cc3)c(C(N)=O)c3ccncn23)cc1 [Example 15, 7-(4-acrylamidophenyl)-6-(4-((6-methylpyridin-2-yl)oxy)phenyl)pyrrolo[1,2-c]pyrimidine-5-carboxamide] | 100 to 1000 | < 10 | 10 to 100 | – | –
C=CC(=O)N1CCc2cc(-c3c(-c4ccc(Oc5cccc(C)n5)cc4)c(C(N)=O)c4cnccn34)ccc21 [Example 14, 6-(1-acryloylindolin-5-yl)-7-(4-((6-methylpyridin-2-yl)oxy)phenyl)pyrrolo[1,2-a]pyrazine-8-carboxamide] | – | < 10 | – | – | IC50 (FGFR3; [1]): < 10 nM; IC50 (FGFR1; [4]): < 10 nM
C=C(F)C(=O)Nc1ccc(-c2c(-c3ccc(Oc4nccc(C)n4)cc3)c(C(N)=O)c3cnc(CCO)cn23)cc1 [Example 80, 6-(4-(2-fluoroacrylamido)phenyl)-3-(2-hydroxyethyl)-7-(4-((4-methylpyrimidin-2-yl)oxy)phenyl)pyrrolo[1,2-a]pyrazine-8-carboxamide] | 100 to 1000 | – | 10 to 100 | < 10 | –
C=C(F)C(=O)Nc1ccc(-c2c(-c3ccc(Oc4nccc(C)n4)c(F)c3)c(C(N)=O)c3cc(-c4cnn(C)c4)ncn23)c(C)c1 [Example 92, 6-(3-fluoro-4-((4-methylpyrimidin-2-yl)oxy)phenyl)-7-(4-(2-fluoroacrylamido)-2-methylphenyl)-3-(1-methyl-1H-pyrazol-4-yl)pyrrolo[1,2-c]pyrimidine-5-carboxamide] | 10 to 100 | – | – | < 10 | IC50 (FGFR3; [5]): < 10 nM
C=C(F)C(=O)Nc1ccc(-c2c(-c3ccc(Oc4nccc(C)n4)cc3)c(C(N)=O)c3cnc(C(F)(F)F)cn23)cc1 [Example 56, 6-(4-(2-fluoroacrylamido)phenyl)-7-(4-((4-methylpyrimidin-2-yl)oxy)phenyl)-3-(trifluoromethyl)pyrrolo[1,2-a]pyrazine-8-carboxamide] | 100 to 1000 | – | 100 to 1000 | – | IC50 (FGFR2): 10 to 100 nM
C=C(F)C(=O)Nc1ccc(-c2c(-c3cccc(C(=O)NC)c3)c(C(N)=O)c3cnc(C)cn23)c(F)c1 [Example 75, 6-(2-fluoro-4-(2-fluoroacrylamido)phenyl)-3-methyl-7-(3-(methylcarbamoyl)phenyl)pyrrolo[1,2-a]pyrazine-8-carboxamide] | 100 to 1000 | – | 100 to 1000 | – | IC50 (FGFR2): 100 to 1000 nM
C=C(F)C(=O)N1CCc2cc(-c3c(-c4ccc(Oc5nccc(C)n5)c(F)c4)c(C(N)=O)c4cnc(C)cn34)c(C)cc21 [Example 97, 7-(3-fluoro-4-((4-methylpyrimidin-2-yl)oxy)phenyl)-6-(1-(2-fluoroacryloyl)-6-methylindolin-5-yl)-3-methylpyrrolo[1,2-a]pyrazine-8-carboxamide] | 10 to 100 | – | – | < 10 | IC50 (FGFR3; [5]): < 10 nM
C=CC(=O)Nc1ccc(-c2c(-c3ccc(Oc4cccc(C)n4)cc3)c(C(N)=O)c3cnccn23)cn1 [Example 3, 6-(6-acrylamidopyridin-3-yl)-7-(4-((6-methylpyridin-2-yl)oxy)phenyl)pyrrolo[1,2-a]pyrazine-8-carboxamide] | – | < 10 | – | – | IC50 (FGFR3; [1]): < 10 nM; IC50 (FGFR1; [4]): < 10 nM
C=CC(=O)Nc1ccc(-c2c(-c3ccc(Oc4cccc(C)n4)cc3)c(C(N)=O)c3cnc(C4COC4)cn23)cc1 [Example 76, 6-(4-acrylamidophenyl)-7-(4-((6-methylpyridin-2-yl)oxy)phenyl)-3-(oxetan-3-yl)pyrrolo[1,2-a]pyrazine-8-carboxamide] | 10 to 100 | < 10 | – | – | IC50 (FGFR3; [1]): < 10 nM
C=C(F)C(=O)N1CC2(CC2)c2cc(-c3c(-c4ccc(Oc5nccc(C)n5)c(F)c4)c(C(N)=O)c4cnc(C)cn34)c(F)cc21 [Example 102, 6-(6′-fluoro-1′-(2-fluoroacryloyl)spiro[cyclopropane-1,3′-indolin]-5′-yl)-7-(3-fluoro-4-((4-methylpyrimidin-2-yl)oxy)phenyl)-3-methylpyrrolo[1,2-a]pyrazine-8-carboxamide] | – | – | 10 to 100 | – | IC50 (FGFR1; read-out: FGFR1 IC50, * incubation at room temperature for 60 minutes before addition of substrate solution, ATP 28 μM, FGFR1 0.01 nM): < 10 nM; IC50 (FGFR2): 10 to 100 nM
CC#CC(=O)Nc1ccc(-c2c(-c3ccc(C(=O)NCC4(F)COC4)cc3)c(C(N)=O)c3cnc(C)cn23)cc1 [Example 65, 6-(4-(but-2-ynamido)phenyl)-7-(4-(((3-fluorooxetan-3-yl)methyl)carbamoyl)phenyl)-3-methylpyrrolo[1,2-a]pyrazine-8-carboxamide] | 100 to 1000 | – | 100 to 1000 | – | IC50 (FGFR2): 10 to 100 nM
C=CC(=O)Nc1ccc(-c2c(-c3ccc(Oc4cccc(C)n4)cc3)c(C(N)=O)c3ccnc(C)n23)cc1 [Example 84, 7-(4-acrylamidophenyl)-1-methyl-6-(4-((6-methylpyridin-2-yl)oxy)phenyl)pyrrolo[1,2-c]pyrimidine-5-carboxamide] | 100 to 1000 | < 10 | 10 to 100 | – | –
Cc1cn2c(-c3ccc(NC(=O)/C=C/CN(C)C)cc3)c(-c3ccc(Oc4cccc(C)n4)cc3)c(C(N)=O)c2cn1 [Example 9, (E)-6-(4-(4-(dimethylamino)but-2-enamido)phenyl)-3-methyl-7-(4-((6-methylpyridin-2-yl)oxy)phenyl)pyrrolo[1,2-a]pyrazine-8-carboxamide] | 100 to 1000 | < 10 | 10 to 100 | – | –
C=CC(=O)Nc1ccc(-c2c(-c3ccc(Oc4cccc(C)n4)cc3)c(C(N)=O)c3cnc(CN(C)C)cn23)cc1 [Example 29, 6-(4-acrylamidophenyl)-3-((dimethylamino)methyl)-7-(4-((6-methylpyridin-2-yl)oxy)phenyl)pyrrolo[1,2-a]pyrazine-8-carboxamide] | – | – | 100 to 1000 | – | IC50 (FGFR1; [4]): > 1000 nM; IC50 (FGFR2): 10 to 100 nM
C=C(F)C(=O)N1CCc2c1ccc(-c1c(-c3ccc(Oc4nccc(C)n4)c(F)c3)c(C(N)=O)c3cnc(C)cn13)c2F [Example 99, 6-(4-fluoro-1-(2-fluoroacryloyl)indolin-5-yl)-7-(3-fluoro-4-((4-methylpyrimidin-2-yl)oxy)phenyl)-3-methylpyrrolo[1,2-a]pyrazine-8-carboxamide] | 10 to 100 | – | – | < 10 | IC50 (FGFR3; [5]): < 10 nM
C=CC(=O)Nc1ccc(-c2c(-c3ccc(Oc4cccc(C)n4)c(OC)c3)c(C(N)=O)c3cnccn23)cc1 [Example 25, 6-(4-acrylamidophenyl)-7-(3-methoxy-4-((6-methylpyridin-2-yl)oxy)phenyl)pyrrolo[1,2-a]pyrazine-8-carboxamide] | 100 to 1000 | < 10 | 10 to 100 | – | –
C=C(F)C(=O)Nc1ccc(-c2c(-c3ccc(Oc4nccc(C)n4)c(F)c3)c(C(N)=O)c3ccccn23)cc1 [Example 107, 2-(3-fluoro-4-((4-methylpyrimidin-2-yl)oxy)phenyl)-3-(4-(2-fluoroacrylamido)phenyl) indolizine-1-carboxamide] | 100 to 1000 | – | 10 to 100 | – | –
